The nature of the assay: In vitro binding affinity against sigma receptor by using [3H]-DTG ([3H]-6) as radioligand in guinea pig cerebellum.
In the case of `CCCCN1CCC2(CCCCc3ccccc32)CC1`, the IC50 stood at 4.8 nM.

`COc1ccc(CN2CCC3(CCCc4ccccc43)CC2)cc1` returned an IC50 of 1.7 nM.

`Cc1ccc(CN2CCC3(CCc4ccccc43)CC2)cc1` had an IC50 of 5.9 nM.

As for `c1ccc(CN2CCC3(CCCCc4ccccc43)CC2)cc1`, the half-maximal inhibitory concentration (IC50) amounted to 6.8 nM.

In the case of `c1ccc2c(c1)CCCC21CCN(CC2CCCO2)CC1` (stereo not given), the concentration for half-maximal inhibition (IC50) was 5.5 nM.

With `CCCCCCN1CCC2(CCCc3ccccc32)CC1`, the half-inhibitory concentration (IC50) is 2.9 nM.

`O=[N+]([O-])c1ccc(CN2CCC3(CCCc4ccccc43)CC2)cc1` had an IC50 of 14 nM.

In the case of `c1ccc(CN2CCC3(CCc4ccccc43)CC2)nc1`, the IC50 came out at 16 nM.

Turning to `c1ccc2c(c1)CCCC21CCN(CC2CC2)CC1`, the IC50 turned out to be 10 nM.

`Clc1ccc(CN2CCC3(CCCc4ccccc43)CC2)cc1` registered an IC50 of 6.8 nM.

On to `c1ccc(CCN2CCC3(CCc4ccccc43)CC2)cc1`, for which the IC50 was 2.8 nM.

The compound `C=CCN1CCC2(CCCc3ccccc32)CC1` returned an IC50 of 18 nM.

`C=CCCN1CCC2(CCCc3ccccc32)CC1` came in with an IC50 of 6.6 nM.

Consider `COc1ccc(CN2CCC3(CCc4ccccc43)CC2)cc1`, for which the 50% inhibitory concentration (IC50) turned out to be 3.5 nM.

In turn, `c1csc(CN2CCC3(CCCc4ccccc43)CC2)c1` returned an IC50 of 6.3 nM.

As to `c1coc(CN2CCC3(CCCc4ccccc43)CC2)c1`, the IC50 amounted to 9.5 nM.

In turn, `c1ccc(CCN2CCC3(CCCc4ccccc43)CC2)cc1` came in with an IC50 of 5 nM.

Take `CCCCN1CCC2(CCc3ccccc32)CC1`: the IC50 was determined as 2 nM.

In the case of `Oc1ccc2c(c1)C1(CCC2)CCN(Cc2ccccc2)CC1`, the IC50 was 69 nM.

`Cc1ccc2c(c1)CCCC21CCN(Cc2ccccc2)CC1` yielded an IC50 of 5.5 nM.

What is called IC50 is the midpoint of a concentration-inhibition curve. A low value points to inhibition by little substance.

Values taken from BindingDB's records for doi:10.1021/jm00089a013 (Merck Sharp and Dohme Research Laboratories, 1992).
